# Test results from patent publication US5099015A, “Trifluoromethyl 1-carba(1-dethia)cephems” (Eli Lilly and Company, priority 1991, dated 1992).
# Where two headings read alike, the source gives them in different places.
# Columns and labels:
# Test in all cases: Agar dilution antibacterial test (MIC)
# Format in all cases: cell-based
# Enterococcus faecium X66 = system: Enterococcus faecium X66
# Experimental: (§1) Fresh overnight cultures of test bacteria were diluted to approximately 1x(10)4 cells/microliter and applied in one microliter volumes to the surfaces of the agar plates. The innoculated plates were incubated overnight at 35° C. in ambient air. Minimum inhibitory concentration (mic) endpoints were recorded as the lowest antibiotic concentrations in micrograms per milliliter that inhibited the development of visible growth on the plates. The following summarizes the results of such tests with the compounds of the examples listed above.
# Serratia SE3 = system: Serratia SE3
# Experimental: as §1
# [1] = system: Staphylococcus aureus V41
# Experimental: as §1
# [2] = system: Haemophilus influenzae 76; conditions: read-out: MIC
# Experimental: as §1
# [3] = system: Staphylococcus aureus NRRL X1.1
# Experimental: as §1
# [4] = system: Enterobacter aerogenes EB17
# Experimental: as §1
# Escherichia coli EC14 = system: Escherichia coli EC14
# Experimental: as §1
# Enterobacter cloacae EB5 = system: Enterobacter cloacae EB5
# Experimental: as §1
# Salmonella X514 = system: Salmonella X514
# Experimental: as §1
# [5] = system: Klebsiella pneumoniae X68
# Experimental: as §1
# [6] = system: Staphylococcus epidermidis EPI270
# Experimental: as §1
# Salmonella 1335 = system: Salmonella 1335
# Experimental: as §1
# [7] = system: Enterobacter cloacae 265A
# Experimental: as §1
# Citro CF17 = system: Citro CF17
# Experimental: as §1
# Morg morg PR15 = system: Morg morg PR15
# Experimental: as §1
# Escherichia coli TEM = system: Escherichia coli TEM
# Experimental: as §1
# Shig sonn. N9 = system: Shig sonn. N9
# Experimental: as §1
# [8] = system: Klebsiella pneumoniae X26; conditions: read-out: MIC
# Experimental: as §1
# [9] = system: Staphylococcus pneumoniae Park 1; conditions: PARK1, read-out: MIC
# Experimental: as §1
# [10] = system: Staphylococcus aureus X400
# Experimental: as §1
# [11] = system: Staphylococcus aureus S13E
# Experimental: as §1
# [12] = system: Enterococcus faecalis 2041
# Experimental: as §1
# Escherichia coli N10 = system: Escherichia coli N10
# Experimental: as §1
# Proteus rett C24 = conditions: Proteus rett C24
# Experimental: as §1
# Proteus incon PR33 = system: Proteus incon PR33
# Experimental: as §1
# Serratia X99 = system: Serratia X99
# Experimental: as §1
# [13] = system: Haemophilus influenzae C.L.
# Experimental: as §1
# [14] = system: Staphylococcus epidermidis 222
# Experimental: as §1
# [15] = system: Staphylococcus pyogenes C203; conditions: read-out: MIC
# Experimental: as §1
# [16] = system: Klebsiella pneumoniae KAE
# Experimental: as §1
# [17] = system: Enterobacter aerogenes C32
# Experimental: as §1
# Acom AC12 = system: Acom AC12
# Experimental: as §1
# [18] = Klebsiella aerogenes, read-out: MIC
compound,measurement,setting,value
"N[C@@H](C(=O)N[C@@H]1C(=O)N2C(C(=O)O)=C(C(F)(F)F)CC[C@H]12)c1ccccc1 [Compound 1, 7β-[D-α-(amino)phenylacetylamino]-3-trifluoromethyl-1-carba-(1-dethia)-3-cephem-4-carboxyl ic acid]",MIC,Enterococcus faecium X66; read-out: MIC,32 µg/mL
same,MIC,Serratia SE3; read-out: MIC,32 µg/mL
same,MIC,[1]; read-out: MIC,16 µg/mL
same,MIC,[2],1 µg/mL
same,MIC,"[3]; NRRLX1.1, read-out: MIC",2 µg/mL
same,MIC,[4]; [18],4 µg/mL
same,MIC,Escherichia coli EC14; read-out: MIC,0.5 µg/mL
same,MIC,Enterobacter cloacae EB5; read-out: MIC,8 µg/mL
same,MIC,Salmonella X514; read-out: MIC,0.25 µg/mL
same,MIC,[5]; read-out: MIC,0.5 µg/mL
same,MIC,[6]; read-out: MIC,4 µg/mL
same,MIC,Salmonella 1335; read-out: MIC,1 µg/mL
same,MIC,[7]; read-out: MIC,16 µg/mL
same,MIC,Citro CF17; read-out: MIC,8 µg/mL
same,MIC,Morg morg PR15; read-out: MIC,32 µg/mL
same,MIC,Escherichia coli TEM; read-out: MIC,0.5 µg/mL
same,MIC,Shig sonn. N9; read-out: MIC,1 µg/mL
same,MIC,[8],0.25 µg/mL
same,MIC,[9],0.125 µg/mL
same,MIC,[10]; read-out: MIC,64 µg/mL
same,MIC,[11],32 µg/mL
same,MIC,[12]; read-out: MIC,16 µg/mL
same,MIC,Escherichia coli N10; read-out: MIC,2 µg/mL
same,MIC,Proteus rett C24; read-out: MIC,8 µg/mL
same,MIC,Proteus incon PR33; read-out: MIC,16 µg/mL
same,MIC,Serratia X99; read-out: MIC,8 µg/mL
same,MIC,[13]; read-out: MIC,0.5 µg/mL
same,MIC,[14]; read-out: MIC,4 µg/mL
same,MIC,[15],0.06 µg/mL
same,MIC,[16]; read-out: MIC,8 µg/mL
same,MIC,[17]; [18],4 µg/mL
"CON=C(C(=O)N[C@@H]1C(=O)N2C(C(=O)O)=C(C(F)(F)F)CC[C@H]12)c1csc(N)n1 [Compound 4, [7S,6R]-7-([2-Amino-4-thiazolyl(methoxyimino)acetyl]amido)-3-trifluoromethyl-1-carba(b 1-dethia)-3-cephem-4-carboxylic acid]",MIC,Enterococcus faecium X66,> 128 µg/mL
same,MIC,Serratia SE3,2 µg/mL
same,MIC,[1],8 µg/mL
same,MIC,[3],4 µg/mL
same,MIC,[4],.125 µg/mL
same,MIC,Escherichia coli EC14,.03 µg/mL
same,MIC,Enterobacter cloacae EB5,.25 µg/mL
same,MIC,Salmonella X514,.015 µg/mL
same,MIC,[5],.015 µg/mL
same,MIC,[6],8 µg/mL
same,MIC,Salmonella 1335,.06 µg/mL
same,MIC,[7],64 µg/mL
same,MIC,Citro CF17,8 µg/mL
same,MIC,Morg morg PR15,4 µg/mL
same,MIC,Acom AC12,16 µg/mL
same,MIC,Escherichia coli TEM,.125 µg/mL
same,MIC,Shig sonn. N9,.06 µg/mL
same,MIC,[10],128 µg/mL
same,MIC,[11],16 µg/mL
same,MIC,[12],1 µg/mL
same,MIC,Escherichia coli N10,.06 µg/mL
same,MIC,Proteus rett C24,1 µg/mL
same,MIC,Proteus incon PR33,.125 µg/mL
same,MIC,Serratia X99,.5 µg/mL
same,MIC,[13],.015 µg/mL
same,MIC,[14],4 µg/mL
same,MIC,[16],32 µg/mL
same,MIC,[17],.25 µg/mL
